Measured values taken from patent US10576085B2, “Substituted aminopurine compounds, compositions thereof, and methods of treatment therewith” (Signal Pharmaceuticals, LLC, priority 2016, dated 2020).
pIC50: −log10 of the molar value.

Experiments:
[1] = test system: TEAD reporter activity (YAP/TAZ responsive synthetic promoter); experiment: TEAD reporter assay, 8×GTIIC-luciferase WI38 VA13 cells; format: cell-based; conditions: Homo sapiens, WI-38 VA13; 24 hour assay; cumulative data of three experiments
Method: TEAD reporter activity was analyzed using WI38 VA13 cells stably expressing a YAP/TAZ responsive synthetic promoter driving luciferase expression (8×GTIIC-luciferase). 10,000 cells per well were seeded on a white-walled 96-well plate and left overnight. After 16-20 hours, cells were treated with compound and TEAD reporter activity was measured 24 or 72 hours later using Bright Glo luciferase assay (Promega) according to the manufacturers instructions. This assay was performed 3 times for Compound 1 and twice for Trametinib.

[2] = test system: MAPK signaling (pRSK1, DUSP4, DUSP6, SPRY2, cyclin D1, c-Myc, YAP); experiment: MAPK signaling markers (MSD, Western blot, qPCR) in Colo 205 (BRAF V600E); format: cell-based
Method: In a time course experiment, Colo-205 cancer cells were treated with 0.5 μM Compound 1 for various time periods. The effect of Compound 1 on pRSK S380 was measured as described. The effect of Compound 1 on other MAPK pathway markers (DUSP4 and DUSP6) was measured via Western blotting with specific antibodies.
The ability of Compound 1 to inhibit MAPK signaling was assessed by determining the DUSP4 and DUSP6 protein expression. Colon cancer cell line Colo 205 (BRAF V600E) cultures were treated with DMSO or increasing concentrations of Compound 1 for 2, 8 or 24 h. Proteins were extracted from treated cells and analyzed by Western blot using antibodies against DUSP4, DUSP6, cyclin D1, c-Myc, YAP or β-actin. RNAs were extracted using Cell-To-CT kit and quantitative PCR was performed with probes specific for DUSP4, DUSP6, SPRY2, c-Myc and cyclin D1. Specific probes for β-actin were used for normalization.
Compound 1 modulation of MAPK, WNT/β-catenin, and Hippo/YAP pathway markers was evaluated by standard Western blotting. LOX-IMVI, SW48, and Colo-205 cells were plated in 6-well plates at a density of 250,000 cells per well and were allowed to attach overnight. Compound 1 was added to cells at concentrations of 0.03, 0.1, 0.3, 1, and 3 μM for durations of 2, 8, and 24 hours. […] The cell lysates were heated in sodium dodecyl sulfate (SDS)-sample buffer and 40 μg of cell lysate per condition were loaded onto gels and separated using SDS polyacrylamide gel electrophoresis (PAGE). Protein was transferred to nitrocellulose membrane, and immunoblotted with anti DUSP4, DUSP6, cMyc, Cyclin D1, YAP, AXIN2, HDACS (phospho S498), and β-actin antibodies. Membranes were scanned on the Licor Odyssey system.
Compound 1 modulation of MAPK, WNT/β-catenin, and Hippo/YAP pathway genes was evaluated by real-time (RT)-qPCR. […], SW48, and Colo-205 cells were plated in 96-well plates at a density of 20,000 cells per well and were allowed to attach overnight. Compound 1 was added to cells at half log concentrations from 1 nM to 10 μM for durations of 2, 8, and 24 hours. Cells were harvested using the TaqMan Gene Expression Cells-to-CT Kit according to the product manual. Next, RT-PCR was performed and the resulting cDNA was used in qPCR reactions on the ViiA7 Real-Time PCR System (Thermo Fisher Scientific). TaqMan probes were used to monitor changes in DUSP4, DUSP6, SPRY2, MYC, CCND1, AXIN2, CTGF, Cyr61, AREG, and ACTB genes. All genes were normalized to ACTB expression and reported as percentage of DMSO-only control.

PD-L1 = PD-L1 expression, Western blot, LOX-IMVI (BRAF V600E); format: cell-based
Method: The effect of Compound 1 was evaluated on PD-L1 expression levels. Cells were cultured in presence or absence of Compound 1 for indicated time before expression levels of PD-L1, DUSP4 and α-tubulin or α-actin were measured by Western blot. To detect surface levels of PD-L1, cells were treated with DMSO or Compound 1 at indicated concentrations for 48 h and cell surface expression of PD-L1 was detected using flow cytometry analysis (FACS) with an APC-labeled antibody to PD-L1 (clone 29E.1A3; BioLegend, San Diego, Calif.). Geometric mean of PD-L1 positive cells was determined by FlowJo 10 (Treestar, Ashland, Oreg.).

IL-8 = IL-8 in PBMC culture media (Mesoscale V-Plex Human IL-8); format: cell-based; conditions: 0.5 μM
Method: The effect of Compound 1 treatment on levels of IL-8 was determined in PBMC culture media. PBMCs were isolated from whole blood and cultured in RPMI media plus 10% FBS. PBMCs were plated at 1×10^6 per milliliter in 10 cm^2 dishes. The PBMCs were treated with 0.1% DMSO or 0.5 μM Compound 1. Treatments were taken down at the designated time points. The culture media (1 mL) was used for IL-8 analysis. The IL-8 analysis was performed with a Mesoscale V-Plex Human IL-8 kit according to the manufacturer's instructions.

SW48 tumor = experiment: β-catenin mutant SW48 colorectal xenograft model; format: in vivo, SCID mice; conditions: FIGS. 15A-15B
From the text: Female SCID mice were inoculated with 2×10^6 SW48 tumor cells into the right flank. Mice were randomized into treatment groups (n=10/group) at the time of treatment initiation. Test article treatment started on Day 10 when the tumors were approximately 110 and 105 mm^3. (See FIGS. 15A-15B.) Black dotted line is the tumor volume at the initiation of dosing. Graph on the left is a dose-response study. Graph on the right is a time to progression study where animals were maintained on drug during the course of the study. Dotted line is the tumor volume on Day 28 when the vehicle control group was terminated.

NLK = NLK (Homo sapiens, UniProt Q9UBE8); experiment: Known kinases inhibited (no method given); format: biochemical
NLK, sequence (Q9UBE8 whole entry): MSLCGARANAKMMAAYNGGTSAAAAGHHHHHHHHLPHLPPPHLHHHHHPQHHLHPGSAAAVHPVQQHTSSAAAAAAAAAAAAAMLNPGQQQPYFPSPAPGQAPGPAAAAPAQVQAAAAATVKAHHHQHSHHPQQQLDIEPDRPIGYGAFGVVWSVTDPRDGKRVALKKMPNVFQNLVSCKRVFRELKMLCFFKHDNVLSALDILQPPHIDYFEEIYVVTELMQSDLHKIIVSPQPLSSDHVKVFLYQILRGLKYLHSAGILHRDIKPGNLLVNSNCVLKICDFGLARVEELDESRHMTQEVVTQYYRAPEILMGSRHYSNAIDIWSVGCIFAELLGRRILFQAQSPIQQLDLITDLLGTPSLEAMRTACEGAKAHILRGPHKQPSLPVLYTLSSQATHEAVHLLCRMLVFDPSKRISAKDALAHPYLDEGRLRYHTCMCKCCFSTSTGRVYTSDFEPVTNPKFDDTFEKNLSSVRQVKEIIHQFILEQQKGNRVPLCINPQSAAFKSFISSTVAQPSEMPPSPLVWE

## C[C@]1(C(N)=O)CC[C@@H](n2c(Nc3c(Cl)cc(Cl)cc3Cl)nc3cnc(N[C@@H]4CCOC[C@H]4F)nc32)CC1 [Compound 1, cis-4-[2-{[(3S,4R)-3-fluorooxan-4-yl]amino}-8-(2,4,6-trichloroanilino)-9H-purin-9-yl]-1-methyl cyclohexane-1-carboxamide]
[1]
  pIC50: < 5.00
[2]; Colo 205
  cyclin D1 and c-Myc RNA and protein levels: significantly decreased
[2]; Colo 205 (BRAF V600E), as early as 2 h, sustained through 24 h
  DUSP4 and DUSP6 protein (Western blot): significantly reduced
[2]; Colo 205, 24 h
  YAP protein: decreased YAP protein
[2]; Colo 205, qPCR
  SPRY2 transcription: reduction of SPRY2 transcription in a concentration-dependent manner
[2]; Colo-205, 0.5 μM
  Inhibition of ERK targets pRSK1, DUSP4 and DUSP6, time course: sustained inhibition (up to 72 hr)
PD-L1
  PD-L1 expression: directly inhibits PD-L1 expression
IL-8
  IL-8 levels in PBMC culture media: inhibit IL-8 levels at different time-points
SW48 tumor
  Antitumor activity: antitumor activity
NLK
  Kinase inhibition: inhibited
